Data: patent publication US8987234B2, “Complex for treatment and/or prophylaxis of parasitic infections” (IPCA Laboratories Ltd., priority 2009, dated 2015)

Tests used:
[1] = Intrinsic dissolution/solubility under standard USP conditions (40% isopropyl alcohol with phosphate buffer pH 8.0); type: physicochemical
[2] = Comparative rat pharmacokinetic study, plasma analyzed by LC MS/MS; type: in vivo, albino Wistar rats
Method: Comparative pharmacokinetic study of complex of example-I at two doses with physical mixtures of Atovaquone and Proguanil hydrochloride (Malarone) was carried for profiling of bioavailability of Atovaquone, Proguanil and Cycloguanil from all three samples. Four groups of 13-14 weeks old five albino Wistar rats were made through random selection. Group I served as a vehicle control and received only 0.5% sodium carboxymethyl cellulose, group II and group III received two different doses of complex of Example I, and group IV received a physical mixture of Atovaquone and Proguanil hydrochloride (Malarone). The dose volume used for this study was 10 ml/Kg of body weight. Orbital sinus was used as blood collection site and the blood was collected in EDTA coated microcentrifuge tubes at different time points between 0 min (pre dose) to 240 hrs. Plasma samples were analyzed by LC MS/MS. Comparative pharmacokinetic profiles of Atovaquone, Proguanil and Cycloguanil are as given below in table 3, 4, and 5 respectively: […]

physchem = type: physicochemical
[3] = tablet formulation, Malarone label; cited from earlier work

CC(C)NC(=N)NC(=N)Nc1ccc(Cl)cc1.O=C1C(O)=C([C@H]2CC[C@H](c3ccc(Cl)cc3)CC2)C(=O)c2ccccc21 [Complex, trans-Atovaquone-Proguanil complex (1:1)]
% Dissolution Atovaquone ([1]; 1 Hrs.): 2.64% | % Dissolution Proguanil ([1]; 1 Hrs.): 1.97% | % Dissolution Atovaquone ([1]; 2 Hrs.): 5.61% | % Dissolution Proguanil ([1]; 2 Hrs.): 3.64% | % Dissolution Atovaquone ([1]; 3 Hrs.): 7.72% | % Dissolution Proguanil ([1]; 3 Hrs.): 5.22% | % Dissolution Atovaquone ([1]; 4 Hrs.): 9.75% | % Dissolution Proguanil ([1]; 4 Hrs.): 6.38% | intrinsic solubility of Atovaquone compared with physical mixture of Atovaquone-Proguanil ([1]; 40% isopropyl alcohol with phosphate buffer pH 8.0): almost doubled | Atovaquone bioavailability increase versus corresponding ratio of physical mixture [2]: increased by at least two times | AUC0-inf of Atovaquone ([2]; Atovaquone dose 6.166 mg/kg): 298501.894 ng/hrxml | Cmax of Atovaquone ([2]; Atovaquone dose 6.166 mg/kg): 4925.009 ng/mL | MRT of Atovaquone ([2]; Atovaquone dose 6.166 mg/kg): 39.240 h | T1/2 of Atovaquone ([2]; Atovaquone dose 6.166 mg/kg): 26.833 h | Tmax of Atovaquone ([2]; Atovaquone dose 6.166 mg/kg): 19.200 h | Vd of Atovaquone ([2]; Atovaquone dose 6.166 mg/kg): 0.001 L/kg | AUC0-inf of Atovaquone ([2]; Atovaquone dose 6.166 mg/kg (Table 3)): 298501.894 ± 117805.568 ng/hr × mL | AUC0-inf of Atovaquone ([2]; Atovaquone dose 13.005 mg/kg): 472148.864 ng/hrxml | Cmax of Atovaquone ([2]; Atovaquone dose 13.005 mg/kg): 6779.226 ng/mL | MRT of Atovaquone ([2]; Atovaquone dose 13.005 mg/kg): 50.644 h | T1/2 of Atovaquone ([2]; Atovaquone dose 13.005 mg/kg): 29.542 h | Tmax of Atovaquone ([2]; Atovaquone dose 13.005 mg/kg): 12.8 h | Vd of Atovaquone ([2]; Atovaquone dose 13.005 mg/kg): 0.001 L/kg | AUC0-inf of Cycloguanil ([2]; Proguanil dose 4.2642 mg/kg): 38.910 ng/hrxml | AUC0-inf of Proguanil ([2]; Proguanil dose 4.2642 mg/kg): 497.306 ng/hrxml | Cl of Cycloguanil ([2]; Proguanil dose 4.2642 mg/kg): 0.118 L/kg/hr | Cl of Proguanil ([2]; Proguanil dose 4.2642 mg/kg): 0.15 mL/min/kg | Cmax of Cycloguanil ([2]; Proguanil dose 4.2642 mg/kg): 4.667 ng/ml | Cmax of Proguanil ([2]; Proguanil dose 4.2642 mg/kg): 87.400 ng/mL | MRT of Cycloguanil ([2]; Proguanil dose 4.2642 mg/kg): 5.753 hr | MRT of Proguanil ([2]; Proguanil dose 4.2642 mg/kg): 5.581 h | T1/2 of Cycloguanil ([2]; Proguanil dose 4.2642 mg/kg): 5.620 hr | T1/2 of Proguanil ([2]; Proguanil dose 4.2642 mg/kg): 4.779 h | Tmax of Cycloguanil ([2]; Proguanil dose 4.2642 mg/kg): 3.200 hr | Tmax of Proguanil ([2]; Proguanil dose 4.2642 mg/kg): 2.800 h | Vd of Cycloguanil ([2]; Proguanil dose 4.2642 mg/kg): 0.873 L/Kg | Vd of Proguanil ([2]; Proguanil dose 4.2642 mg/kg): 0.061 L/kg | AUC0-inf of Cycloguanil ([2]; Proguanil dose 8.995 mg/kg): 34.797 ng/hrxml | AUC0-inf of Proguanil ([2]; Proguanil dose 8.995 mg/kg): 485.239 ng/hrxml | Cl of Cycloguanil ([2]; Proguanil dose 8.995 mg/kg): 0.261 L/kg/hr | Cl of Proguanil ([2]; Proguanil dose 8.995 mg/kg): 0.317 mL/min/kg | Cmax of Cycloguanil ([2]; Proguanil dose 8.995 mg/kg): 6.954 ng/ml | Cmax of Proguanil ([2]; Proguanil dose 8.995 mg/kg): 94.515 ng/mL | MRT of Cycloguanil ([2]; Proguanil dose 8.995 mg/kg): 5.106 hr | MRT of Proguanil ([2]; Proguanil dose 8.995 mg/kg): 4.933 h | T1/2 of Cycloguanil ([2]; Proguanil dose 8.995 mg/kg): 4.406 hr | T1/2 of Proguanil ([2]; Proguanil dose 8.995 mg/kg): 13.149 h | Tmax of Cycloguanil ([2]; Proguanil dose 8.995 mg/kg): 2.00 hr | Tmax of Proguanil ([2]; Proguanil dose 8.995 mg/kg): 1.15 h | Vd of Cycloguanil ([2]; Proguanil dose 8.995 mg/kg): 1.618 L/Kg | Vd of Proguanil ([2]; Proguanil dose 8.995 mg/kg): 0.349 L/kg

O=C1C(O)=C([C@H]2CC[C@H](c3ccc(Cl)cc3)CC2)C(=O)c2ccccc21 [Atovaquone, trans-2-[4-(4-chlorophenyl)cyclohexyl]-3-hydroxy-1,4-naphthoquinone]
pKa (physchem): 8.39 | absolute bioavailability of Atovaquone [3]: 23%
